# Assay results from US11351218B2, “Composition for preventing or treating glioblastoma comprising Platycodon grandiflorum A. De Candolle, Scutellaria baicalensis, Phellodendron amurense Ruprecht or Rubus coreanus” (University-Industry Cooperation Group of Kyung Hee …, priority 2019, dated 2022).
# Legend:
# [1] = tested on: PARP, caspase-3, BCL-2 and BAX; assay: Immunoblot of apoptosis markers (PARP, caspase-3, BCL-2, BAX) in GBM cells; type: cell-based, human; details: PD, 24 hours
# Protocol: FIGS. 7A and 7B show the results that PD induces non-apoptotic cell death. […] GAPDH was used as a loading control. […] Data shown represent the means of quintuplicate measurements which were repeated three times. The results are presented as a percentage of control (means±SD).
# Cells treated with the concentrations and materials described in FIGS. 1-3B, 7, 8, 10, 13, 16, 18, and 20 were lysed in buffer containing 20 mM Tris-HCl (pH 7.5), 150 mM NaCl, 1 mM EDTA, 1 mM Na2EDTA, 1 mM EGTA, 1% NP-40, 1% sodium deoxycholate, 1 mM Na3VO4, 1 mM MPI, 1 mM PMSF, and PI cocktails for 15 to 20 minutes on ice. Cell lysates were separated by SDS-PAGE and transferred to nitrocellulose membranes. Immunodetection was performed with the following primary antibodies: rabbit anti-LC3B, rabbit anti-cathepsin B, rabbit-anti GAPDH (Cell Signaling Technology, Danvers, Mass.), mouse anti-SQSTM1/p62, and goat anti-cathepsin D (Santa CruzKPL, Gaithersburg, Md., USA) were incubated at room temperature for 1 hour. The protein bands were detected with ECL western Blotting Substrate (Thermo Fisher Scientific, Waltham, Mass., USA).
# Therefore, whether PD-mediated autophagy inhibition promotes apoptosis in GBM cells was examined by western blot analysis. Activation of caspase-3 and cleavage of its substrate, PARP, are hallmarks of apoptosis. […]
# [2] = tested on: A549, H358, MCF7, HT29 and HepG2 cells; assay: WST1 cell viability assay in various cancer cell lines; type: cell-based; details: different concentrations, 48 hours, all cell lines tested
# Protocol: FIGS. 9A to 9C show the results that PD decreases cell viability and vacuole formation in various cancer cell lines. FIGS. 9A and 9B show the results in which indicated cells were treated with different concentrations of PG or PD for 48 hours and cell viability was measured by WST1 assay. Data shown represent the means of quintuplicate measurements which were repeated three times. The results are presented as a percentage of control (means±SD).
# Cell cytotoxicity was assessed by WST1 assay. U87 and U373 cells were each seeded in a 96-well plate (5×10^3 cells/well) and treated with different concentrations of platycodin D (PD). Then, cells were incubated with a WST1 reagent (Dogen, Seoul, Korea) for 2 hours before reading the plate. Absorbance was measured at 450 nm using an ELISA reader (Versa Max, Molecular Devices, Sunnyvale, Calif., USA).
# Previously, PD was reported to inhibit cell viability in various cancer cell lines. To further confirm the effects of PD on the cytotoxicity of cancer cells, WST1 assay was performed following treatment with different concentrations of PD.
# cell-surface LDLR = assay: Cell surface LDLR analysis by flow cytometry, normal astrocytes; type: cell-based, human; details: PD 10 μM or U18666a 1 μM, 24 hours
# Protocol: FIGS. 16A to 16D show the results that PD increases the expression of LDLR on cell surfaces in GBM cells. […] GAPDH was used as a loading control. […] GAPDH was used as a loading control.
# Cells treated as described in FIG. 16 were separated from plates and resuspended in PBS. After washing with 1% BSA in PBS, the cells were incubated with a primary antibody against human LDLR (Abcam) for 30 minutes. Then, the cells were washed before incubation with an Alexa-Fluor 488-conjugated secondary antibody (Invitrogen) for 30 minutes. The stained cells were washed and resuspended. Fluorescence was analyzed by a FACScalibur flow cytometer (Becton Dickinson, San Jose, Calif., USA) using CellQuest™ software.
# Brain is the most cholesterol-rich organ of the body, containing about 20% of total body cholesterol. […] As can be confirmed in FIG. 16A, in consistent with these reports, the LDLR protein level was markedly elevated in U87MG and U373MG cells relative to normal human astrocytes. […] Then, the cell surface expression of LDLR was confirmed by flow cytometry.
# U87MG and U373MG cells [3] = assay: Cell morphology (vacuole formation) under optical microscope, GBM cells; type: cell-based, human; details: 10 μM PD, 24 hours
# Protocol: FIGS. 6A and 6B show the results that PD induces a decrease in cell viability and vacuole formation. […] Data shown represent the means of quintuplicate measurements which were repeated three times. The results are presented as a percentage of control (means±SD).
# Inhibition of autophagy has been reported to cause cancer cell death. Therefore, the cytotoxic effects of PD on U87MG, U373MG, and normal astrocytes were examined. After treating these cells with various doses of PD for 48 hours, their cell viability was analyzed by WST1 assays. […] As can be confirmed in FIG. 6B, morphological changes were also visualized by an optical microscope after exposure of GBM cells to 10 μM PD for 24 hours.
# U87MG and U373MG cells [4] = assay: mRFP-GFP-LC3 tandem reporter (autolysosome formation) in GBM cells; type: cell-based, human; details: PD 10 μM or Rapa 1 μM, 24 hours
# Protocol: Cells stably expressing mRFP-GFP-LC3 were incubated with PD (10 μM) or Rapa (1 μM) for 24 hours, and then analyzed by confocal microscopy. The merged images (yellow) show an overlap between GFP-LC3 (green) and mRFP-LC3 (red). The panels on the right are higher-magnification images of the boxed regions.
# In order to examine whether PD induces accumulation of autophagosomes by inhibiting their maturation into autolysosomes, a tandem-tagged fluorescent reporter, mRFP-GFP-LC3, was used. The GFP fluorescence of the fusion protein is rapidly quenched in lysosomal acidic conditions, whereas the RFP fluorescence is relatively stable. The yellow dots in the merged image are indicative of autophagsomes and […] dots correspond to autolysosomes. The mRFP-GFP-LC3 plasmids were transfected into U87MG and U373MG cells, treated with PD for 24 hours, and subjected to confocal microscopy.
# U87MG and U373MG cells [5] = assay: Clonogenic assay, GBM cells; type: cell-based, human; details: PD 10 μM or 20 μM, 7 days
# Protocol: FIGS. 19A and 19B show the results that MβCD restores PD-mediated decrease in cell viability. […] Data shown represent the means of quintuplicate measurements which were repeated three times. The results are presented as a percentage of control (means±SD).
# Approximately 2×10^3 cells were seeded into each 6-well plate and then treated as described in FIG. 19. After 7 days, the cells were washed with PBS and stained with 0.5% crystal violet.
# Furthermore, as can be confirmed in FIG. 19B, a colony formation assay was performed to confirm the effects of MβCD on PD-mediated GBM cell death.
# [6] = tested on: A549, H358, MCF7, HT29 and HepG2 cells; assay: Cell morphology (vacuoles) under optical microscope in various cancer cell lines; type: cell-based; details: PG 500 μg/mL or PD 10 μM, 24 hours
smiles,measurement,setting,value
"C[C@@H]1O[C@@H](O[C@H]2[C@H](OC(=O)[C@]34CCC(C)(C)C[C@H]3C3=CC[C@@H]5[C@@]6(C)C[C@H](O)[C@H](O[C@@H]7O[C@H](CO)[C@@H](O)[C@H](O)[C@H]7O)C(CO)(CO)[C@@H]6CC[C@@]5(C)[C@]3(C)C[C@H]4O)OC[C@H](O)[C@@H]2O)[C@H](O)[C@H](O)[C@H]1O[C@@H]1OC[C@@H](O)[C@H](O[C@@H]2OC[C@](O)(CO)[C@H]2O)[C@H]1O [PD, platycodin D]",caspase-3 activation and PARP cleavage,[1],no significant induction
same,expressions of Bcl2 and BAX,[1],not changed
same,cell viability,[2],suppressed the-viability in a dose-dependent manner
same,changes in peak shift (cell surface LDLR),cell-surface LDLR,very negligible
same,cell morphology (cytoplasmic vacuoles),U87MG and U373MG cells [3],exhibited cytoplasmic vacuoles
same,mRFP and GFP dots of mRFP-GFP-LC3,U87MG and U373MG cells [4],GFP-positive dots were retained and colocalized with mRFP dots
same,colony-forming ability,U87MG and U373MG cells [5],abolished
same,vacuoles,[6],visible vacuoles were observed
